Assay results reported in US12605362B2, “Eletriptan hydrobromide for treatment of spinal cord injury and improvement of locomotor function” (TECHNOPHAGE, INVESTIGAÇÃO E DESENVOLVIMENTO EM …, priority 2020, dated 2026).
Where a name gives a salt, the structure may show the parent alone.

How the values were obtained:
[1] = tested on: transected zebrafish larvae; test: larval zebrafish phenotypic-based screen for SCI (transected spinal cord, DanioVision swimming activity); type: in vivo
Excerpt: Tg(mnx1:GFP^m12), abbreviated as hb9:GFP were maintained and bred in constant conditions, by following standard guidelines for fish care and maintenance protocols^27. Zebrafish larvae were used in the phenotypic-based screen for SCI.
A larval zebrafish phenotypic-based screen was used to screen a pool of compounds from a small molecule library (PHARMAKON 1600-MicroSource Discovery Systems, Inc., USA) as previously described by Diana et al. 201928. Briefly, zebrafish larvae were allowed to develop in EM with 1 μM methylene blue until 5 days-post-fertilization (dpf). At 5dpf, zebrafish larvae spinal cords were transected at the level of the anal pore (Diana et al. 2019). At 1 dpi, larvae were randomly distributed into 6-well plates containing EM+10 mM HEPES and exposed during 24 hours to the chemical compounds added to the medium. At 2 dpi, behavioural assessment was performed using DanioVision™ (Noldus Information Technology, the Netherlands) an automated tracking system for zebrafish larvae. Larvae were allowed to freely swim in a 96-well plate (1 larva/well) with EM+10 mM HEPES and their swimming activity was tracked for […], under 10 minutes light-dark cycles (i.e. 3 light cycles and 3 dark cycles). The acquired track data was analysed using the Ethovision X.T. 10 software (Noldus, Wageningen, Netherlands) and only swimming activity obtained in the 3 dark periods were analysed^29.
To accelerate the discover of potential new therapeutics for spinal cord injury (SCI) we used a phenotypic assay that enabled the screening of a pool of chemical compounds from an FDA approved small molecules library. In this phenotypic-based screen, we blindly administered the chemical compounds (25 μM) at 1 day-post-injury (dpi) and we performed the behavioural assessment 24 hours later (i.e. at 2 dpi) as previously described by Chapela D. et al. 2019. The small molecules were first blindly selected, if there was a statistically significant improvement of total distance moved and/or turn angle parameters, which were chosen as indicators of locomotor function. […]

[2] = tested on: mice with T9 contusion type of injury; test: bladder function score during manual bladder expression after T9 contusion SCI; type: in vivo; details: vs Vehicle
Method: A moderate-severe contusion-type of injury was performed on adult C57BL/6 female mice (10-12 weeks) with an Infinite Horizon Impactor (PSI)^30. All surgeries were performed under aseptic conditions. Briefly, under deep anesthesia with Ketamine and Xylazine (120 mg/kg and 16 mg/kg respectively, i.p.) mice received a dorsal laminectomy at the level of 9th thoracic vertebra (T9). After securing the lateral processes of the 8th thoracic vertebra (T8) and 10th thoracic vertebra (T10) with a stainless-steel impactor tip, a controlled force-defined impact at 75 kdyne was delivered to the exposed spinal cord^28,30. Then, muscle and skin were closed with 4.0 polyglycolic acid (PGA) absorbable sutures (Safil, G1048213). In this study, mice were excluded when the actual displacement value was outside the interval 500-700 μm or if the actual force after impact was >2SD 75 Kdyne. Immediately after injury, mice were injected subcutaneously with 0.5 ml of sterile saline and then daily for 5 days. […] Weight was monitored daily until 15 days-post-injury (dpi) and then weekly for the duration of the study and a high caloric pellet (Supreme Mini-Treats™ S05478 and S05472) was provided as a dietary supplement since a 10% weight loss was typically observed in this SCI model upon injury. […]
Additionally, we also evaluated the bladder dysfunction status, which is a common effect seen after a SCI^3,37. […]

5-HT1D = 5-HT1D (Homo sapiens, UniProt P28221); details: serotonin receptor agonist; cited from earlier work
[3] = tested on: mice with T9 contusion type of injury; test: activated microglia quantification and morphology (P2Y12 / F4/80 immunohistochemistry); type: in vivo; details: 42 dpi; for number of P2Y12+ F4/80+ (activated microglia) cells: vs Vehicle
Method: A moderate-severe contusion-type of injury was performed on adult C57BL/6 female mice (10-12 weeks) with an Infinite Horizon Impactor (PSI)^30. All surgeries were performed under aseptic conditions. Briefly, under deep anesthesia with Ketamine and Xylazine (120 mg/kg and 16 mg/kg respectively, i.p.) mice received a dorsal laminectomy at the level of 9th thoracic vertebra (T9). After securing the lateral processes of the 8th thoracic vertebra (T8) and 10th thoracic vertebra (T10) with a stainless-steel impactor tip, a controlled force-defined impact at 75 kdyne was delivered to the exposed spinal cord^28,30. Then, muscle and skin were closed with 4.0 polyglycolic acid (PGA) absorbable sutures (Safil, G1048213). In this study, mice were excluded when the actual displacement value was outside the interval 500-700 μm or if the actual force after impact was >2SD 75 Kdyne. Immediately after injury, mice were injected subcutaneously with 0.5 ml of sterile saline and then daily for 5 days. During this experiment, mice underwent gentle bladder expression twice daily until they were voiding on their own. Weight was monitored daily until 15 days-post-injury (dpi) and then weekly for the duration of the study and a high caloric pellet (Supreme Mini-Treats™ S05478 and S05472) was provided as a dietary supplement since a 10% weight loss was typically observed in this SCI model upon injury. […]
For immunohistochemistry in sections, OCT was removed from the cryosections using PBS (30 minutes). […] For activated microglia quantification, sections were counterstained with DAPI. […]
To quantify the activated microglia one set of spinal cord sections were stained with anti-P2Y12 (a microglia specific marker) and anti-F4/80 (a pan macrophage marker) and counterstained with […] DAPI. Z-stack compositions were acquired in a motorized inverted widefield fluorescence microscope (Zeiss Cell Observer, Carl Zeiss MicroImaging) with 20× magnification. […]

[4] = 25 μM from 1 dpi, assessed at 2 dpi, dark periods, vs vehicle

Sequence of 5-HT1D (P28221 whole entry, species assumed): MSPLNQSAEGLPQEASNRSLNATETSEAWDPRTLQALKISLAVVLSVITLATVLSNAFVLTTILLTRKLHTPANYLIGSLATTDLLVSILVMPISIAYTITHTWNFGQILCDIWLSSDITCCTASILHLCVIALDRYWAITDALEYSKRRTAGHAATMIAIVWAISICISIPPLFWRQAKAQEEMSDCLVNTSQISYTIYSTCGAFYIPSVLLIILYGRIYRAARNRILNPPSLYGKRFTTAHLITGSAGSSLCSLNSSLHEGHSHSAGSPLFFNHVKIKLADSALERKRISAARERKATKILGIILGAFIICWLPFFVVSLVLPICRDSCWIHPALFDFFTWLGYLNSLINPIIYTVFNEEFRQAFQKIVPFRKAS

CN1CCC[C@@H]1Cc1c[nH]c2ccc(CCS(=O)(=O)c3ccccc3)cc12 [Eletriptan Hbr, Eletriptan Hydrobromide]
total distance moved [1, 4]: rescues motor impairments | turn angle [1, 4]: rescues motor impairments | locomotor impairments ([1]; 25 μM in medium from 1 dpi for 24 hours, behavioural assessment at 2 dpi, vs vehicle treated injured larvae): rescue locomotor impairments | volumes of retained urine (bladder score 0 to 3) ([2]; 1 dpi): statistically significant smaller volumes of retained urine | volumes of retained urine (bladder score 0 to 3) ([2]; after 1 dpi until the end of the study): no differences between experimental groups | affinity (5-HT1D): high affinity | number of P2Y12+ F4/80+ (activated microglia) cells [3]: no statistically significant differences | number of P2Y12+ F4/80+ (activated microglia) cells ([3]; at 400 μm rostrally and caudally to the epicentre): consistently higher | P2Y12+ microglia morphology ([3]; sections near or at the epicentre, feature not observed in Vehicle-treated mice): longer, ramified processes were also observed
